# US6593335B1, “Potassium channel openers” (Abbott Laboratories, priority 1997, dated 2003)
# Target: potassium channels (Sus scrofa, UniProt F1SR11)
# Assay: Functional potassium channel opening activity in isolated Landrace pig bladder strips (field-stimulated twitch)
# Details: for Landrace Pig Bladder Index: ED50 for P1075 divided by ED50 for the test agonist, averaged over tissues; for Landrace Pig Bladder pD2: negative logarithm of ED50; for Emax: pig, maximal efficacy relative to P1075, field stimulation 0.05Hz, 0.5 milli-seconds at 20 volts
# Description: The entire bladder was removed and ed into Krebs Ringer bicarbonate solution (composition, mM: NaCl,; dextrose, 1; KCl, 4.7; […] Propranolol (0.004 ed in all of the assays to block […]. The trigonal and dome […]. Strips 3-5 mm wide and 20 mm long were prepared from the cut in a circular fashion. The mucosal layer was removed. One end ationary glass rod and the other to a Grass FT03 transducer at a basal am. Two parallel platinum electrodes were included in the stationary ide field stimulation of 0.05Hz, 0.5 milli-seconds at 20 volts. […] Tissues were allowed to equilibrate for at least 60 minutes and primed with 80 mM KCl. A control concentration response curve (cumulative) was generated for each tissue using the potassium channel opener […] as the control agonist. […] After a 60 minute rinsing period, a concentration response curve (cumulative) was generated for the test agonist in the same fashion as that used for the control agonist […]. The maximal efficacy of each compound (expressed as % relative to […]) is reported. […] J. Physiol. 235, E97 (1980)), and agonist potencies were expressed as pD2 (the negative logarithm). Agonist potencies were also expressed as an index relative to […]. The index was calculated by dividing the ED50 for […] by the ED50 for the test agonist in a given tissue. Each tissue was used for only one test agonist, and the indices obtained from each tissue were averaged to provide an average index of potency.
SMILES,Landrace Pig Bladder Index,Landrace Pig Bladder pD2,Emax
"Cc1ccc(C2C3=C(CCCC3=O)NC3=C2S(=O)(=O)CC3)cc1[N+](=O)[O-] (single isomer, unassigned) [Example 126, 9-(4-methyl-3-nitrophenyl)-2,3 5,6,7,9-hexahydro[3. 2-b]guinolin-8(4H)-one, 1,1-dioxide]",0.20,6.3,99%
"O=S1(=O)CCC2=C1C(c1ccc(F)c(Br)c1)C=C(C(F)(F)F)N2 (single isomer, unassigned) [Example 136, 7-(3-bromo-4-fluorophenyl)-5-(trifluoromethyl)-2, 3 4 7-tetrahydrothieno[3 2-b]pyridine, 1,1-dioxide]",0.073,5.9,92%
"O=C1CCC2=C1C(c1ccc(Cl)c(Cl)c1)C1=C(CCS1(=O)=O)N2 (single isomer, unassigned) [Example 146]",0.40,6.7,100%
"O=C1CCCC2=C1C(c1ccc(Br)c(Br)c1)C1=C(CCS1(=O)=O)N2 (single isomer, unassigned) [Example 147, 9-(3.4-dibromophenyl)-2,3,5,6,7,,9-hexahydrothieno[3.2-b]quinolin-8(4H)-one, 1,1-dioxide]",0.24,6.2,99%
"O=C1CCCC2=C1C(c1ccc(F)c(I)c1)C1=C(CCS1(=O)=O)N2 (single isomer, unassigned) [Example 149, 9-(4-fluoro-3-iodophenyl)-2,3,5,6,7,9-hexahydrothieno[3 2-b]quinolin-8(4H)-one, 1,1-dioxide]",1.2,6.6,80%
"Cc1ccc(C2C3=C(CCCC3=O)NC3=C2S(=O)(=O)CC3)cc1C#N (single isomer, unassigned) [Example 155, 9-(3-cvano-4-methylphenyl)-2,3 5,6,7,9-hexahydrothieno[3,2-b]guinolin-8(4H)-one, 1,1-dioxide]",0.026,5.4,98%
"O=C1CCC2=C1C(c1ccc(Cl)c([N+](=O)[O-])c1)C1=C(CCS1(=O)=O)N2 (single isomer, unassigned) [Example 161]",0.23,6.3,96%
"O=C1CCCC2=C1C(c1ccc(F)c(-c3ccco3)c1)C1=C(CCS1(=O)=O)N2 (single isomer, unassigned) [Example 165, 9-[4-fluoro-3-(2-fMrIl)phenyl]-2,3,5,6,7,9-hexahydrothieno[3,2-b]quinolin-8(4H)-one, 1,1-dioxide]",0.035,5.8,94%
"O=C1CCCC2=C1C(c1ccc(Br)s1)C1=C(CCS1(=O)=O)N2 (single isomer, unassigned) [Example 167, 9-(5-bromo-2-thienyl)-2,3,5,6,7,9-hexahydrothieno[3,2-b]quinolin-8(4H)-one, 1,1-dioxide]",0.062,5.9,100%
"O=C1CCCC2=C1C(c1cc(Br)cs1)C1=C(CCS1(=O)=O)N2 (single isomer, unassigned) [Example 180, 9-(4-bromo-2-thienyl)-2,3 5,6,7,9-hexahydrothieno[3 2-b]quinolin-8(4H)-one 1,1-dioxide]",0.036,5.5,71%
"O=C1CCC2=C1C(c1ccc(F)c(Br)c1)C1=C(CCCS1(=O)=O)N2 (single isomer, unassigned; (+)) [Example 91]",0.0034,4.6,95%
"O=C1CCCC2=C1C(c1ccc(F)c(Br)c1)C1=C(CCCS1(=O)=O)N2 (single isomer, unassigned; (+)) [Example 93, (+)-I 0-(3-bromo-4-fluorophenyl)-3,4,6,7,8,10-hexahydro-2H-thiopyrano[3 2-b]quinolin-9(5H)-one, 1,1-dioxide]",0.02,5.2,100%
